Reference: ChEMBL document CHEMBL1201862, “PubChem BioAssay data set” (2004)
Calls of active or inactive are those of the source.

Columns and labels:
[1] = tested on: HEK293; assay: inhibitors of LMP1-driven NF-kB reporter, dose response, cell-based, HEK293, luciferase, cherry-pick (AID 588343); assay type: functional; conditions: Homo sapiens
[2] = target: Luciferin 4-monooxygenase (Photinus pyralis, UniProt P08659); assay: firefly luciferase enzyme inhibitors, dose response, biochemical, luminescence (AID 1891)
[3] = tested on: BJ; assay: cells; assay type: functional, cell-based; conditions: Homo sapiens
[4] = tested on: BJ; assay: cytotoxicity toward BJ-TERT-LT-ST fibroblasts, dose response, cell-based, RAS-independent, luminescence (AID 1935); assay type: functional; conditions: Homo sapiens;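 further: BJ fibroblasts immortalized with TERT plus LT and ST oncogenes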
[5] = Luminescence Cell-Based Dose Confirmation HTS to Identify Inhibitors of Platelet Dense Granule Release. [Related pubchem assays: 1663 (Primary HTS), 1678 (Summary of Project)]; assay type: functional
[6] = tested on: BJ; assay: cytotoxicity toward BJ-TERT fibroblasts, dose response, cell-based, RAS-independent, luminescence (AID 1933); assay type: functional; conditions: Homo sapiens
[7] = cytotoxicity toward DRD oncogenic fibroblasts, dose response, cell-based, non-viral oncogenic, luminescence (AID 1934); assay type: functional; conditions: Homo sapiens
[8] = target: Cytochrome P450 2C19 (Homo sapiens, UniProt P33261); assay: Cytochrome panel assay with activity outcomes. Panel member name: p450-cyp2c19 Compounds with AC50 equal or less than 10 uM are considered active; assay type: functional
[9] = target: Cytochrome P450 2C9 (Homo sapiens, UniProt P11712)
[10] = target: Cytochrome P450 3A4 (Homo sapiens, UniProt P08684);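 further: CYP3A4 tested as one member of a cytochrome P450 panel screen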
[11] = target: T1, Cytochrome P450 1A2 (Homo sapiens, UniProt P05177);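 further: PubChem cytochrome P450 panel assay, CYP1A2 panel member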
T1 sequence (P05177 whole entry): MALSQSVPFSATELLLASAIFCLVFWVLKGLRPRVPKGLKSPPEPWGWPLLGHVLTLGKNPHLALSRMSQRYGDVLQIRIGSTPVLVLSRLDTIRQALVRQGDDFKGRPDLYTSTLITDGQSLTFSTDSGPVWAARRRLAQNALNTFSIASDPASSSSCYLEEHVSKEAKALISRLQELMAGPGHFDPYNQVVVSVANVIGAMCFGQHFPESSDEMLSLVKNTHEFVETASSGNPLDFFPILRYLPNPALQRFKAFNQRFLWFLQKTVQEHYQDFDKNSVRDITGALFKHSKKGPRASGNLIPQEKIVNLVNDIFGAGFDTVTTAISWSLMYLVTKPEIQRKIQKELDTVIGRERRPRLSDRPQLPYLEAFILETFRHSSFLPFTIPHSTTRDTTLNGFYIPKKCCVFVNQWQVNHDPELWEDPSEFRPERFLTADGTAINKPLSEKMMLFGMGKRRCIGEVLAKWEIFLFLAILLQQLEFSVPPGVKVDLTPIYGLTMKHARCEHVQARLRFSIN

[12] = tested on: H9c2; assay: cells; assay type: functional, cell-based; conditions: Rattus norvegicus, H9c2, Myocardium;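 further: confirmatory concentration-response retest of ultra-high-throughput screening hits for modulation of myocardial damage; cell death induced by hydrogen peroxide oxidative stress; compound pretreatment for 60 min then peroxide exposure for 2 h; potency is for protecting the cells against peroxide damage rather than for killing them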
[13] = target: Cytochrome P450 2D6 (Homo sapiens, UniProt P10635);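 further: CYP2D6 member of a cytochrome P450 panel assay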
[14] = tested on: INS1; assay: beta cell apoptosis inhibitors, cytokine rescue, dose response, luminescence, retest (AID 449756); assay type: functional, cell-based; conditions: Rattus norvegicus;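 further: cell death triggered by IL-1 beta plus TNF-alpha plus IFN-gamma mixture; protective hits raise ATP signal compared with cytokine alone wells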
[15] = cytotoxicity toward NIH3T3 fibroblasts, dose response, counter-screen, cell-based, ATP luminescence, mouse fibroblasts (AID 2010); assay type: functional;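 further: cells exposed to compound for about 90 hours before reading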
[16] = inhibitors of intracellular T. cruzi replication, confirmation, NIH3T3 host cells, beta-gal luminescence (AID 2044); assay type: functional, cell-based;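 further: intracellular parasites grown in NIH/3T3 mouse fibroblasts as host cells; luminescent beta-galactosidase reporter signal from transgenic T. cruzi replicating inside host cells; inhibitors lower the luminescence signal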
[17] = Luminescence Cell-Based Dose Retest to Confirm Inhibitors of Cancer Stem Cells. [Related pubchem assays (depositor defined):AID2717, AID2721]; assay type: functional; conditions: Homo sapiens
[18] = tested on: Vero; assay: cells; assay type: functional; conditions: Chlorocebus sabaeus
[19] = target: T2, Fatty acid synthase (Homo sapiens, UniProt P49327); assay: FAS thioesterase domain inhibitors, dose response, biochemical, endpoint fluorescence intensity, uHTS hits (AID 624327); assay type: functional;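 further: fluorescence from hydrolysis of an O-methyl fluorescein acyl ester substrate by the enzyme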
[20] = target: T3, Sentrin-specific protease 6 (Homo sapiens, UniProt Q9GZR1); assay type: functional;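 further: Luminescence-based dose-response confirmatory assay of SENP6 inhibition, following up an ultra-high-throughput screen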
T3 sequence (Q9GZR1 whole entry): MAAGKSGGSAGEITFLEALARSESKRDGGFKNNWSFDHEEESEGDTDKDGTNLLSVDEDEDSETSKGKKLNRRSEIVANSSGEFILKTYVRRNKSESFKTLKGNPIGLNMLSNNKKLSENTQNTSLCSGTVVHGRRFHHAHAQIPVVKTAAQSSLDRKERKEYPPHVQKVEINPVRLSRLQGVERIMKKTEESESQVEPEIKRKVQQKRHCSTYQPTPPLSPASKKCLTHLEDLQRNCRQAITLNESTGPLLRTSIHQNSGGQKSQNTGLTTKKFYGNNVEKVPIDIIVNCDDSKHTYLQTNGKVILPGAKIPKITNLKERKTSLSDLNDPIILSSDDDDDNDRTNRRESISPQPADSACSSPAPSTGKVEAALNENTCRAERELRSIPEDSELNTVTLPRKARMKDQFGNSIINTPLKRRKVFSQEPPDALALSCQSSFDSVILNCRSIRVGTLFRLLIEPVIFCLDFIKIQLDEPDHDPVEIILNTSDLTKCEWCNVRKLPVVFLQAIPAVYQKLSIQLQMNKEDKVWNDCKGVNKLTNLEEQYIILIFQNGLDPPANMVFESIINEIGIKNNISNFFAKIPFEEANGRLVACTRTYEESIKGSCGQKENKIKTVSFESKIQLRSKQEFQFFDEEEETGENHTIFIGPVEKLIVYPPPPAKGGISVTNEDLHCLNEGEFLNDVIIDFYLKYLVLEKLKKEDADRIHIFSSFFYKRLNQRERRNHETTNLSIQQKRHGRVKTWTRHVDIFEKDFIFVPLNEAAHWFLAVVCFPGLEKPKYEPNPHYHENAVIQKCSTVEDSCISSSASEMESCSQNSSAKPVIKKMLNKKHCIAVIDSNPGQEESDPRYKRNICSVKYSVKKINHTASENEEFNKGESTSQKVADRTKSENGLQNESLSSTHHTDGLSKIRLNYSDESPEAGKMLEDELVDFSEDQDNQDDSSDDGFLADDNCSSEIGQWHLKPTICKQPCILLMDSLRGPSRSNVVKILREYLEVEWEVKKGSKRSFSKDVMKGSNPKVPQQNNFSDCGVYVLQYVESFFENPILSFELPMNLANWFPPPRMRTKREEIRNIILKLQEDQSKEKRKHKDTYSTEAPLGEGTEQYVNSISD

[21] = target: Induced myeloid leukemia cell differentiation protein Mcl-1 (Homo sapiens, UniProt Q07820); assay type: functional
[22] = tested on: H4; assay: Luminescence Cell-Based Dose Response HTS to Identify Activators of 5'UTR Stem-Loop Driven Prion Protein mRNA Translation in H4 Neuroglioblastoma Cells. [Related pubchem assays: 1829 (Project Summary), 1814 (Primary HTS)]; assay type: functional; conditions: Homo sapiens
[23] = tested on: Streptococcus sp. 'group A'; assay: growth inhibition of control SK(-) GAS strain, dose response, counter-screen for streptokinase expression inhibitor project, luminescence, kanamycin, BacTiterGlo, confirmation (AID 1900); assay type: functional, organism-based
[24] = Luminescence Cell-Based Dose Confirmation to Identify Activators of 5'UTR Stem-Loop Driven Alpha-Synuclein mRNA Translation in H4 Neuroglioblastoma Cells. [Related pubchem assays: 1829 (Project Summary), 1814 (Primary HTS)]; assay type: functional
[25] = target: T4, Sentrin-specific protease 7 (Homo sapiens, UniProt Q9BQF6); assay type: functional;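 further: Luminescence-based dose-response confirmation of ultra-high-throughput screening hits, measuring inhibition of SENP7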
T4 sequence (Q9BQF6 whole entry): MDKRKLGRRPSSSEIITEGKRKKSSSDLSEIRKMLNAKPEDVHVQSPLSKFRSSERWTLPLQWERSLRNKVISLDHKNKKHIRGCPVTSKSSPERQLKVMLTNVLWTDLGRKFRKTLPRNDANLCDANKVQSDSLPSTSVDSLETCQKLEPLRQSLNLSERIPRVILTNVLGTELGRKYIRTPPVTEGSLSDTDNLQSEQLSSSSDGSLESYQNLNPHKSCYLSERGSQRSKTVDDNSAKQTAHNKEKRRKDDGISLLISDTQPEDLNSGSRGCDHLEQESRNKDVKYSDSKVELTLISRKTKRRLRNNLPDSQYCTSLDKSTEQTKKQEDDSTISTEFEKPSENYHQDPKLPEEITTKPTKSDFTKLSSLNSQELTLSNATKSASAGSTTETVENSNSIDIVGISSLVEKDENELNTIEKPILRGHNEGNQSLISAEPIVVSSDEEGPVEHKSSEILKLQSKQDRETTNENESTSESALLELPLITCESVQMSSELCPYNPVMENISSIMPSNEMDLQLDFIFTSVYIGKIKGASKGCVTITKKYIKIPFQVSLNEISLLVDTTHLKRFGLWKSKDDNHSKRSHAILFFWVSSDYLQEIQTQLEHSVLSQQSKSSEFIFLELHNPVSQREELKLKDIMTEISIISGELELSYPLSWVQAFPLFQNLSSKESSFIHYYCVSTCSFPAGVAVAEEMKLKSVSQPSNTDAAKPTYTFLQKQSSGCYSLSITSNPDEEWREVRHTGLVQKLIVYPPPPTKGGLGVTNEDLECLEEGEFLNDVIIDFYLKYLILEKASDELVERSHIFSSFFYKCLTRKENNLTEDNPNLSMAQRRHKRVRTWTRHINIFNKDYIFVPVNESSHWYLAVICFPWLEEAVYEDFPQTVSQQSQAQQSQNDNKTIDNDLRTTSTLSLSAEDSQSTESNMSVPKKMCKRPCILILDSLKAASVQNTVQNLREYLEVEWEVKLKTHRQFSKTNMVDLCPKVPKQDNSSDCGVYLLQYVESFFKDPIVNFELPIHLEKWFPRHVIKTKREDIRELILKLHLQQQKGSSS

[26] = Luminescence Cell-Based Dose Response to Identify Activators of 5'UTR Stem-Loop Driven Prion Protein mRNA Translation in H4-C Neuroglioblastoma Cells. [Related pubchem assays: 1829 (Project Summary), 1814 (Primary HTS)]; assay type: functional
[27] = target: T2, Fatty acid synthase; assay: FAS thioesterase domain inhibitors, dose response, biochemical, kinetic fluorescence intensity (AID 624326); assay type: functional;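 further: rate of fluorescence rise from hydrolysis of a fluorogenic O-methyl fluorescein ester substrate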
[28] = Luminescence Cell-Based Dose Response to Identify Activators of Luciferase Translation or Activity in H4-C Neuroglioblastoma Cells. [Related pubchem assays: 1829 (Project Summary), 1814 (Primary HTS)]; assay type: functional
[29] = target: T5, Caspase-3 (Homo sapiens, UniProt P42574); assay type: functional;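 further: Dose-response selectivity test against caspase-3 for candidate inhibitors of sentrin-specific proteases (SENPs)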
T5 sequence (P42574 whole entry): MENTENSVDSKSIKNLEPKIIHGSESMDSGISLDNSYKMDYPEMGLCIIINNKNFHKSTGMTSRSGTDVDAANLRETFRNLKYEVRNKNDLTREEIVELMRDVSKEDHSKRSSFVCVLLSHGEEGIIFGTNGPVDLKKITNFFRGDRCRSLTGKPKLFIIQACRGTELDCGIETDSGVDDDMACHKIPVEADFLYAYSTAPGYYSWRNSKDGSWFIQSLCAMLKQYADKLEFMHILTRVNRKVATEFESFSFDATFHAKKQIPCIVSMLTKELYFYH

[30] = tested on: Streptococcus; assay: Group A Streptococcus viability loss, dose response, counter-screen for streptokinase expression inhibitor project, luminescence, BacTiterGlo (AID 1915); assay type: functional, organism-based;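 further: potency for reduction of bacterial viability or growth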
[31] = target: T6, Sentrin-specific protease 8 (Homo sapiens, UniProt Q96LD8); assay type: functional;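 further: luminescence read-out of SENP8 inhibition, dose-response confirmation following an ultra-high-throughput screen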
T6 sequence (Q96LD8 whole entry): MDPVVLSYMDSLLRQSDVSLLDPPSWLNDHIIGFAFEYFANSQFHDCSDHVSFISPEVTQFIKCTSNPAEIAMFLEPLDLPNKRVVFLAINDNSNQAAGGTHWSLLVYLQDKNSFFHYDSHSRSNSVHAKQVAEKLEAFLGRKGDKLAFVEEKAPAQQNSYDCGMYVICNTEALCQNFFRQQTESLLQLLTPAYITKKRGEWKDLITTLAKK

Sequence of Cytochrome P450 2C9 (P11712 whole entry): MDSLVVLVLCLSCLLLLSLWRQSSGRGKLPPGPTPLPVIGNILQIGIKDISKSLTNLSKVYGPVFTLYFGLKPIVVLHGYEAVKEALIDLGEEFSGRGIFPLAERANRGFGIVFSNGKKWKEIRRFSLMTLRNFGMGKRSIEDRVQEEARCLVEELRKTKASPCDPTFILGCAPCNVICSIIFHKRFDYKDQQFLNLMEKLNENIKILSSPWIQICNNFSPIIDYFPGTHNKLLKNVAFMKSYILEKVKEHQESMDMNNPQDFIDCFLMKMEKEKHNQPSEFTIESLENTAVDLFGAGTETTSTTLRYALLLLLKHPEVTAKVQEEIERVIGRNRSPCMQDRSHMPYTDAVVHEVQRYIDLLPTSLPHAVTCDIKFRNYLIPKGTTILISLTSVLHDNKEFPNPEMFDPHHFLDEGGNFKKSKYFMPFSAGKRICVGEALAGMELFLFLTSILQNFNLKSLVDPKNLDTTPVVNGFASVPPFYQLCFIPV
Sequence of Cytochrome P450 2C19 (P33261 whole entry): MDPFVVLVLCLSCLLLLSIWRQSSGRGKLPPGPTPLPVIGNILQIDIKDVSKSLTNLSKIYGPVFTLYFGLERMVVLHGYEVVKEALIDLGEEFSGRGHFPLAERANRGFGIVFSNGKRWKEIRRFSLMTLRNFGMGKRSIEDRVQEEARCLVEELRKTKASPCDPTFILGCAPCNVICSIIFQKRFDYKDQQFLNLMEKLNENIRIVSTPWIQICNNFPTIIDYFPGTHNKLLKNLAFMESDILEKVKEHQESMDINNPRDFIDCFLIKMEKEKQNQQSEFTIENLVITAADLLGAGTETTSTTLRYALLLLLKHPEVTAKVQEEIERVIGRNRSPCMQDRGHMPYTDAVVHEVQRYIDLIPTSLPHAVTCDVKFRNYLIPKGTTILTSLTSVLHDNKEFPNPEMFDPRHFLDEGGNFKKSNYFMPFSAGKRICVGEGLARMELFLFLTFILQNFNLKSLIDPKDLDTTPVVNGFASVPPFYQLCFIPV
Sequence of Cytochrome P450 3A4 (P08684 whole entry): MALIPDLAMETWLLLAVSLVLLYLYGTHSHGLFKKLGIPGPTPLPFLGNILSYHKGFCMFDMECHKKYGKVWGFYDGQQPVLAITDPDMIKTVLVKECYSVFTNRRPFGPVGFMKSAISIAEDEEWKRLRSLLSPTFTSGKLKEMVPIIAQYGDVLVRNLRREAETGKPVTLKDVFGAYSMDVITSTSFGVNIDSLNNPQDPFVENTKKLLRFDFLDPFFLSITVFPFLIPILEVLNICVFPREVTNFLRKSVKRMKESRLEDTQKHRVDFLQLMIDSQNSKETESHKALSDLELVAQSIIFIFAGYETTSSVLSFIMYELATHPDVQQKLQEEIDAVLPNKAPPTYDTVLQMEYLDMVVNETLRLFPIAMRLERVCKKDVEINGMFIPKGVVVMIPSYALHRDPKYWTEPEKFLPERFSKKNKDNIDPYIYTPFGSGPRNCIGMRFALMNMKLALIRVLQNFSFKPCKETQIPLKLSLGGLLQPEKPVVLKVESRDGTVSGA
T2 sequence (P49327 whole entry, the tested form may be a part): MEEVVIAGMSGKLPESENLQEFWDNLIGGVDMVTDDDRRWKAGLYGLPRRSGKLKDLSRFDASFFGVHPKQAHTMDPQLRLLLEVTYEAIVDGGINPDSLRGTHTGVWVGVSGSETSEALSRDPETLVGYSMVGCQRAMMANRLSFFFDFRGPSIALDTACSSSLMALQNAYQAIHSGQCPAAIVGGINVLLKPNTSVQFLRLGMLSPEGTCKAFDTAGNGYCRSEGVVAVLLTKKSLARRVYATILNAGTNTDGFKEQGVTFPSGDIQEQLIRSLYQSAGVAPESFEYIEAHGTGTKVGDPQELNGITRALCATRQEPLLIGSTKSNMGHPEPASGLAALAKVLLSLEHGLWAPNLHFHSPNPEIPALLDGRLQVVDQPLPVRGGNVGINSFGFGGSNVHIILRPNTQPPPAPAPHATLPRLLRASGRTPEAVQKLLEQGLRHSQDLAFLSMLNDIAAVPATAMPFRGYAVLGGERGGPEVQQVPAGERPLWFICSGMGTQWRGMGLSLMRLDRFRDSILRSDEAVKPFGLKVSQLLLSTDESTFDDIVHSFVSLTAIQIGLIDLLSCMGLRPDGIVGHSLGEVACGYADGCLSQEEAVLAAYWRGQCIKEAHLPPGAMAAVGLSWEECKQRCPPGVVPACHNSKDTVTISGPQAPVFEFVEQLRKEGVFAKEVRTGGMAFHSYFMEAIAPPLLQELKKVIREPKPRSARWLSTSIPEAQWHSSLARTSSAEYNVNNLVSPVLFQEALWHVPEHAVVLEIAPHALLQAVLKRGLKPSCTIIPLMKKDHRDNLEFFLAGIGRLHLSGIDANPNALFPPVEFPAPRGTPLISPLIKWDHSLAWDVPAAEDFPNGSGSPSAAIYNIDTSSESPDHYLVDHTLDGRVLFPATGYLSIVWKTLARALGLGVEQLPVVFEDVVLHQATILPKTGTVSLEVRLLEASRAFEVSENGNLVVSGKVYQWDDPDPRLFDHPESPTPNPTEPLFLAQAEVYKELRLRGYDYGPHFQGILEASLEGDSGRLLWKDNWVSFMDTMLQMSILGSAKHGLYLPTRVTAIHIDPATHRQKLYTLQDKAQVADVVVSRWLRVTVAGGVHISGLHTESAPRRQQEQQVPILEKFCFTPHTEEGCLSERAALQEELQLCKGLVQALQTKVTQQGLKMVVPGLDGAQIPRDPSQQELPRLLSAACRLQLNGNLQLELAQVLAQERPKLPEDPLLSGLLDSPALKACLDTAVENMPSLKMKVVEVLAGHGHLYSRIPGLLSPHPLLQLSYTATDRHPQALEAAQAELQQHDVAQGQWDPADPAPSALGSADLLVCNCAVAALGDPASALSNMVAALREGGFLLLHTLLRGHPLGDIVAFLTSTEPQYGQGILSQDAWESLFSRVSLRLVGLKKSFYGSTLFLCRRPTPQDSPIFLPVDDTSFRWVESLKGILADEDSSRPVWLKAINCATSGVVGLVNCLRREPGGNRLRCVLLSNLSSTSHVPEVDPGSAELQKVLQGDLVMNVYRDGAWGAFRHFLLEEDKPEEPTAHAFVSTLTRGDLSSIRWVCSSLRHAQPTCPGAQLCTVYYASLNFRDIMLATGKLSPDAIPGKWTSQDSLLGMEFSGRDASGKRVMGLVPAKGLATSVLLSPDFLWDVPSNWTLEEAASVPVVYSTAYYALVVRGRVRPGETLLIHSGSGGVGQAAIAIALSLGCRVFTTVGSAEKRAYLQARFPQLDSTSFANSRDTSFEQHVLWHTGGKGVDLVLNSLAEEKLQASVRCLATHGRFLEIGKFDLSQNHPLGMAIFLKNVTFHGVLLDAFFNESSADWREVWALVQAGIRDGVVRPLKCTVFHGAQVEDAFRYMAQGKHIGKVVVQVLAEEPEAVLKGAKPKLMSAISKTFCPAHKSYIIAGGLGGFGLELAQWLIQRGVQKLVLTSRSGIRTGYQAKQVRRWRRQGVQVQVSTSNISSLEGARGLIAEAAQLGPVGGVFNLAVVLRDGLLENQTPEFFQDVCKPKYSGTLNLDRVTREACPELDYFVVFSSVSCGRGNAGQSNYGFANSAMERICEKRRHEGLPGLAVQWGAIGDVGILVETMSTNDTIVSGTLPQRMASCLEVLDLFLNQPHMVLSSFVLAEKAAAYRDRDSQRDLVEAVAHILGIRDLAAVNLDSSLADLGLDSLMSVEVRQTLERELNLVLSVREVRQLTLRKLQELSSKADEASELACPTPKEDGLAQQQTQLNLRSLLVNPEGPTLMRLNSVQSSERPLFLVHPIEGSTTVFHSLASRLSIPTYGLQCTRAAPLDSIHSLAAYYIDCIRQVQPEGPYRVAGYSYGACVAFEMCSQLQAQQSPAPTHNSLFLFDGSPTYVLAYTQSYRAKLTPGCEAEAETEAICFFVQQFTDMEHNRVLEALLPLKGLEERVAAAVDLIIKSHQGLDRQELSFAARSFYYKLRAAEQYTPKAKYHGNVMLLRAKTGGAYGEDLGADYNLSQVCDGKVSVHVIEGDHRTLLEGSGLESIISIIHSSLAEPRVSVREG
Sequence of Cytochrome P450 2D6 (P10635 whole entry): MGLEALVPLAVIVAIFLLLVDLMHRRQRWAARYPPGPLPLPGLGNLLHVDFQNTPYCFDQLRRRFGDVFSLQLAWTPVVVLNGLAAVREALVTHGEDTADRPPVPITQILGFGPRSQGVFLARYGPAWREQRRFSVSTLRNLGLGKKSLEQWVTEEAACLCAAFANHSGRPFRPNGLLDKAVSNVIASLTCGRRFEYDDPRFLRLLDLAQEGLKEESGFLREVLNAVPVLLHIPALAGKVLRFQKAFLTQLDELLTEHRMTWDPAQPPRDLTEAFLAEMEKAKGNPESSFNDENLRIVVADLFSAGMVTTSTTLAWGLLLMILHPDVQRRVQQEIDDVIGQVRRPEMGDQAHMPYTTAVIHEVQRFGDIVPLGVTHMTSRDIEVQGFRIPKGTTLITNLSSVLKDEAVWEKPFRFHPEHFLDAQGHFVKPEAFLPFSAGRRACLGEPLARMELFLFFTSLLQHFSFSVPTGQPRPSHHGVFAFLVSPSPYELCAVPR
Sequence of Luciferin 4-monooxygenase (P08659 whole entry): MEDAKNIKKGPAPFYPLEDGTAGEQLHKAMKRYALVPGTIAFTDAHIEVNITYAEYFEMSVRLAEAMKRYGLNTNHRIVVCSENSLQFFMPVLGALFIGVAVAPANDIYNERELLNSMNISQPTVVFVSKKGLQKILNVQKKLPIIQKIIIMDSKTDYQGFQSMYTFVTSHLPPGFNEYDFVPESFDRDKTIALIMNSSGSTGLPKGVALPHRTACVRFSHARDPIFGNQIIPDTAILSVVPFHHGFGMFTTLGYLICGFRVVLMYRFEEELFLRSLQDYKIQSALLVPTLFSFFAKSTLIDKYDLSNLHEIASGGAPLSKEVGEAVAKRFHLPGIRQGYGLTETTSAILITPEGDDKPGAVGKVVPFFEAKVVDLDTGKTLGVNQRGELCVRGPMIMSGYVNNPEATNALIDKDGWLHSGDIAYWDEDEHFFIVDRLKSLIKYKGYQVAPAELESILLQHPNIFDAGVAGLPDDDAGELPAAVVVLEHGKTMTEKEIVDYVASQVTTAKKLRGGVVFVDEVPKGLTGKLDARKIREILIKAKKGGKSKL

O=C(Nc1ccc(N2CCOCC2)cc1)c1cn2ccccc2n1
AC50 [1]: 3.09 µM (active) | EC50 [2]: 4.45 µM (active) | EC50 [3]: 11.1 µM (active) | EC50 [4]: > 150 µM (inconclusive) | EC50 [5]: 3.25 µM (active) | EC50 [6]: 12.3 µM (active) | EC50 [7]: 12.1 µM (active)

CCc1ccccc1NC(=O)c1nnn(CC(=O)Nc2cccc(C)c2C)c1N
AC50 ([8]; read-out: AC50): 2 µM (inconclusive) | AC50 [9]: inconclusive | AC50 [10]: 7.08 µM (inconclusive) | AC50 [11]: 12.6 µM (inconclusive)

O=C(Nc1ncc(Cc2cccc(Cl)c2)s1)C1=NCCN1
AC50 [8]: inconclusive | AC50 [9]: inconclusive | AC50 [11]: 31.6 µM (inconclusive)

COc1ccc(CSc2nc(O)c3ccccc3n2)cc1F
IC50 [12]: > 79 µM (inactive)

COc1ccc(N(C(=O)c2cccc([N+](=O)[O-])c2)S(=O)(=O)c2cccs2)cc1
IC50 [12]: > 79 µM (inactive)

N#Cc1c(Oc2ccc3ccccc3c2)sc(C(=O)c2ccccc2)c1N
AC50 [1]: 26.7 µM (active)

O=C1C2C3C=CC(CC3)C2C(=O)N1c1cccc(Br)c1 (configuration not stated)
IC50 [12]: > 79 µM (inactive)

Cn1c(SCC(=O)N2CCN(S(=O)(=O)c3ccccc3)CC2)nc2ccccc21
AC50 [9]: inconclusive | AC50 [13]: 14.1 µM (inconclusive)

Cc1nc2c(-c3ccc(Cl)cc3)c(C)nn2c(O)c1Cc1ccccc1
AC50 [1]: 9.26 µM (active) | AC50 [14]: 2.5 µM (active) | EC50 [15]: 2.97 µM (active) | EC50 [16]: 0.938 µM (active)

O=C(CSC1=NNC(c2ccccn2)S1)Nc1cccc(Cl)c1 (configuration not stated)
IC50 [12]: > 79 µM (inactive)

Cc1cccc(NC(=O)c2[nH]cnc2C(=O)NCCCNC(=O)c2nc[nH]c2C(=O)Nc2cccc(C)c2)c1
IC50 [12]: 26.2 µM (active) | AC50 [17]: 10.6 µM (active)

COc1cc2ccnc(C=O)c2cc1OC
CC50 [18]: > 25 µM (active) | IC50 [12]: 14.5 µM (active)

CCN(CC)CCOC(=O)c1cc(Cl)c(N)cc1OC
AC50 [9]: inconclusive | AC50 [10]: 31.6 µM (inconclusive)

O=C(O)c1ccc(N/N=C/c2ccc(-c3cc(Cl)ccc3Cl)o2)cc1
IC50 [19]: 3.61 µM (active) | IC50 [20]: > 100 µM (inactive) | IC50 [21]: 2.17 µM (active) | EC50 [22]: < 0.1 µM (active) | EC50 [23]: 2.44 µM (active) | EC50 [24]: 0.121 µM (active) | IC50 [25]: > 100 µM (inactive) | EC50 [26]: 0.384 µM (active) | IC50 [27]: 4.39 µM (active) | EC50 [28]: 0.482 µM (active) | IC50 [29]: > 100 µM (inactive) | EC50 [30]: 2.61 µM (active) | IC50 [31]: > 100 µM (inactive)

C/C(CC(=O)NCc1ccco1)=N\NC(=O)Cc1cccc2ccccc12
AC50 ([8]; read-out: AC50): 25.1 µM (inconclusive) | AC50 [9]: inconclusive | AC50 [11]: 12.6 µM (inconclusive)
